{"source": "patent US9758477B2", "about": "“Sulfamoylbenzamide derivatives as antiviral agents against HBV infection” (priority 2011, dated 2017)", "key": {"[1]": {"assay": "Cytotoxicity in AML12HBV10 cells, MTT assay", "format": "cell-based, murine", "details": "mouse; AML12HBV10 cells, 48 hours, MTT; read-out: CC50 (cellular toxicity)", "experimental": "(§1) Determination of cytotoxicity of compounds of the disclosure in AML12HBV10 cells: To determine the cytotoxicity of the compounds, AML12HBV10 cells were seeded into 96-well plates at a density of 2×10^4 cells per well and cultured in DMEM/F12 media with 10% fetal bovine serum in the absence of tetracycline to allow pgRNA transcription and HBV DNA replication. One day after seeding, cells were left untreated or treated with a serial dilution of testing compounds, ranging from 50 μM to 0.39 μM, for 48 hours. The cell viability was measured by a MTT assay, following procedure provided by the manufacturer (Promega). The cytotoxicity of a compound was expressed as the concentration of compound that reduces the viability of the cells by 50% (CC50)."}, "[2]": {"test_system": "HBV", "assay": "Antiviral efficacy in AML12HBV10 cells, HBV DNA by dot-blot hybridization", "format": "cell-based, Hepatitis B virus (HBV)", "experimental": "The antiviral efficacy of the compounds of the disclosure, as presented in Tables 5, 6, 7, 8 and 9, were determined in AML12HBV10 cells. AML12HBV10 is an immortalized murine hepatocyte (AML12)-derived stable cell line that supports robust HBV replication in a tetracycline inducible manner (Xu et al.). The cells were seeded into 96 well plates at a density of 2×10^4 cells per well and cultured in DMEM/F12 media with 10% fetal bovine serum in the absence of tetracycline to allow pgRNA transcription and HBV DNA replication. One day after seeding, cells were left untreated or treated with a serial dilution of testing compounds, ranging from 50 μM to 0.39 μM, for 48 hours. Cells were then lysed by adding into each well of 100 μl lysis buffer containing 10 mM Tris-HCl (pH 7.6), 1 mM EDTA, 100 mM NaCl and 1% NP-40 and incubated at 37° C. for 30 minutes. Half amount (50 μl) of cell lysate from each well was combined with equal volume of denaturing solution containing 0.5N NaOH and 1.5M NaCl. After 5 minute incubation, 100 μl of neutralization solution (IM Tris-HCl, pH 7.4, 1.5M NaCl) was added into each well. The denatured cell lysates (totally 200 μl) were applied onto Nylon membrane using 96-well dot-blot manifold (Biorad). HBV DNA in the cell lysates were determined by dot-blot hybridization with alpha-^32P-UTP-labelled riboprobe specific for HBV minus strand DNA. The antiviral efficacy of a compound of the disclosure was expressed as the concentration that reduces the amount of HBV DNA by 50% (EC50)."}, "[3]": {"test_system": "capsid-associated HBV DNA", "assay": "Nucleocapsid-associated HBV DNA and DNA replication intermediates (particle gel hybridization, Southern blot)", "format": "cell-based, Hepatitis B virus (HBV)", "details": "AML12HBV10 cells, 2 days, FIG. 3 panels D and E; Bay41-4109 5 μM, AT-61 25 μM", "experimental": "(§2) To obtain mechanistic insight of the compounds of present invention against HBV, AML12HBV10 cells cultured in the 12-well plates were treated with a series of concentrations of DVR-1, DVR-56 or DVR-23 for two days in the absence of tetracycline (Guo et al., 2007). As positive controls, the cells were also treated with Bay41-4109 (5 μM) or AT-61 (25 μM), the known HBV nucleocapsid assembly effectors that either bind to HBV core protein dimmer to misdirect its interaction and prevent capsid formation (Bay41-4109) (Deres et al., 2003: Stray and Zlotnick, 2006), or interact with a core assembly intermediate and promote the formation of empty capsids (AT-61) (Feld et al., 2007; Katen et al., King et al., 1998). The amounts of intracellular viral mRNA, encapsidated pgRNA, capsids and nucleocapsid-associated HBV DNA were analyzed with the methods detailed below.\nProcedures of viral capsids and nucleocapsid-associated DNA analysis: HepDES19 cells were lysed by addition of 300 μl buffer containing 10 mM Tris-HCl (pH7.6), 100 mM NaCl, 1 mM EDTA and 0.1% NP-40 to each well of 12-well plate. […] HBV capsids were detected by probing the membrane with an antibody against HBV core protein (DAKO). […] The viral DNA was detected by hybridization with a α-^32P-UTP (800 Ci/mmol, Perkin Elmer) labeled minus strand specific full-length HBV riboprobe (Xu et al.). […]"}, "[4]": {"test_system": "encapsidated pgRNA", "assay": "Encapsidated pgRNA by Northern blot in AML12HBV10 cells", "format": "cell-based, Hepatitis B virus (HBV)", "details": "2 days, FIG. 3 panel C, Bay41-4109 5 μM, AT-61 25 μM", "experimental": "as §2\nDetermination of encapsidated pgRNA: AML12HBV10 cells were lysed by addition of 600 μl of lysis buffer (50 mM Tris-HCl [pH 7.5], 1 mM EDTA, 150 mM NaCl, 1% NP-40) into each well of 12-well plates. The nuclei were removed by centrifugation at 5,000 g for 10 minutes. One-half of the sample was mixed with 6 U of micrococcal nuclease (Pharmacia) and 15 μl of 100 mM CaCl2 and incubated for 15 minutes at 37° C. to digest free nucleic acids. The reaction was stopped with 6 μl of 0.5 M EDTA, and capsids were precipitated by adding 125 μl of 35% polyethylene glycol 8000 in 1.75 M NaCl to the reaction and incubating in ice for 30 minutes, followed by centrifugation at 6,000 g for 10 minutes at 4° C. Pellets were re-suspended in 50 μl of TNE buffer (10 mM Tris-HCl [pH 8], 100 mM NaCl, 1 mM EDTA), pgRNA was extracted by the addition of 1 ml of Trizol reagent. The encapsidated pgRNA were electrophoresed through a 2.2 M formaldehyde-1% agarose gel, transferred to a nylon membrane, and immobilized by UV cross-linking (Stratagene). Hybridization was performed with an alpha-^32P-UTP labeled riboprobe specific for plus strand of HBV genome."}, "[5]": {"test_system": "HBV capsids", "assay": "Viral capsids by particle gel assay", "format": "cell-based, Hepatitis B virus (HBV)", "details": "AML12HBV10 cells, 2 days, FIG. 3 panel B; Bay41-4109 5 μM, AT-61 25 μM", "experimental": "as §2\nProcedures of viral capsids and nucleocapsid-associated DNA analysis: HepDES19 cells were lysed by addition of 300 μl buffer containing 10 mM Tris-HCl (pH7.6), 100 mM NaCl, 1 mM EDTA and 0.1% NP-40 to each well of 12-well plate. […] HBV capsids were detected by probing the membrane with an antibody against HBV core protein (DAKO). […] The viral DNA was detected by hybridization with a α-^32P-UTP (800 Ci/mmol, Perkin Elmer) labeled minus strand specific full-length HBV riboprobe (Xu et al.)."}, "[6]": {"test_system": "AML12HBV10 cells", "assay": "Cytotoxicity in AML12HBV10 cells, MTT assay", "format": "cell-based, murine", "experimental": "as §1"}, "[7]": {"assay": "Cytotoxicity in HepDES19 cells, MTT assay", "format": "cell-based", "details": "human, Table 10, HepDES19 cells, unit inferred", "experimental": "as §1, with “human hepatoma-derived cell lines, HepDES19” for “AML12HBV10 cells: To determine the cytotoxicity of the compounds, AML12HBV10”, “2×10^4” left out, “tetracycline.” for “tetracycline to allow pgRNA transcription and HBV DNA replication.”, “6 days.” for “48 hours.”"}, "[8]": {"test_system": "HBV", "assay": "Antiviral activity in HepDES19 cells, core-associated HBV DNA by Southern blot hybridization", "format": "cell-based", "details": "Hepatitis B virus, 144 h, Table 10, HepDES19 cells, 6 days, unit inferred", "experimental": "FIG. 2 and Table 10, in human hepatoma-derived cell lines: To further confirm the antiviral activity of the compounds of the disclosure against HBV in human hepatocyte-derived cells, HepDES19 cells, a human hepatoma cell line supporting HBV replication in a tetracycline inducible manner (Guo et al., 2007), seeded into 12-well plates at a density of 5×10^5 cells per well and cultured in DMEM/F12 media with 10% fetal bovine serum and 1 μg/ml tetracycline. Two days after seeding, the cells were mock-treated or treated with a serial dilution of compounds of the disclosure, ranging from 10 μM to 0.018 μM, for 6 days in the absence of tetracycline. Upon the completion of treatment, cells were lysed by adding into each well of the 12-well plates 0.5 ml of lysis buffer containing 10 mM Tris-HCl (pH 8.0), 1 mM EDTA, 1% NP40 and 2% sucrose and incubating at 37° C. for 10 minutes. Cell debris and nuclei were removed by centrifugation and the supernatant was mixed with 130 μl of 35% polyethylene glycol (PEG) 8000 containing 1.5 M NaCl. After 1 hour incubation in ice, viral nucleocapsids were pelleted by centrifugation at 6,000×g for 5 min at 4° C., followed by 1 hour digestion at 37° C. in 400 μl of digestion buffer containing 0.5 mg/ml pronase (Calbiochem), 0.5% SDS, 150 mM NaCl, 25 mM Tris-HCl (pH 8.0) and 10 mM EDTA. The digestion mixture was extracted twice with phenol and DNA was precipitated with ethanol, dissolved in TE buffer (10 mM Tris-HCl, pH 8.0; 0.1 mM EDTA). One half of the DNA sample from each well was resolved by electrophoresis into a 1.5% agarose gel. The gel was then subjected to denaturation in a solution containing 0.5 M NaOH and 1.5 M NaCl, followed by neutralization in a buffer containing 1 M Tris-HCl (pH7.4) and 1.5 M NaCl. DNA was then blotted onto Hybond-XL membrane (GE Health care) in 20×SSC buffer. The amounts of cytoplasmic HBV core-associated HBV DNA were determined by Southern blot hybridization and the antiviral efficacy of a compound was expressed as its concentration that reduce the amount of HBV DNA by 50% (EC50) or 90% (EC90)."}, "[9]": {"details": "Hepatitis B virus, AML12HBV10 cells, 48 hours, concentration reducing HBV DNA by 50%, read-out: EC50 (antiviral activity by dot blot hybridization)"}, "[10]": {"details": "AML12HBV10 cells, 48 hours, MTT, read-out: CC50 (cellular toxicity)"}, "[11]": {"details": "AML12HBV10 cells, 48 hours, concentration reducing HBV DNA by 50%, read-out: EC50 (antiviral activity by dot blot hybridization)"}}, "note": "Read-outs that look alike come from different tables or passages of the source."}
{"smiles": "O=C(NCc1ccccc1)c1ccc2c(c1)NC(=O)c1ccccc1S2(=O)=O", "values": [{"measurement": "CC50 at 48 h", "setting": "[1]", "result": "> 50", "unit": "µM"}, {"measurement": "EC50", "setting": "[2]; [9]", "result": 8, "unit": "µM"}]}
{"smiles": "COC(=O)C1=C(C)NC(c2ncc(F)cc2F)=N[C@H]1c1ccc(F)cc1Cl", "note": "[Bay41-4109]", "values": [{"measurement": "capsid-associated HBV DNA / DNA synthesis", "setting": "[3]", "result": "completely abolished"}, {"measurement": "level of encapsidated pgRNA", "setting": "[4]", "result": "completely abolished"}, {"measurement": "capsid formation", "setting": "[5]", "result": "completely abolished"}]}
{"smiles": "C=CCNS(=O)(=O)c1ccc(F)c(C(=O)Nc2ccc(F)c(F)c2)c1", "note": "[DVR-34]", "values": [{"measurement": "CC50", "setting": "[6]; [10]", "result": "> 50", "unit": "µM"}, {"measurement": "EC50", "setting": "[2]; [11]", "result": 4, "unit": "µM"}]}
{"smiles": "Cc1cccc(NC(=O)c2cc(S(N)(=O)=O)ccc2Cl)c1", "note": "[DVR-16]", "values": [{"measurement": "CC50", "setting": "[6]; [10]", "result": "> 50", "unit": "µM"}, {"measurement": "EC50", "setting": "[2]; [11]", "result": 6, "unit": "µM"}]}
{"smiles": "O=C(N/C(C(=O)N1CCCCC1)=C(/Cl)c1ccccc1)c1ccccc1", "note": "[AT-61]", "values": [{"measurement": "capsid-associated HBV DNA / DNA synthesis", "setting": "[3]", "result": "dose-dependently reduced"}, {"measurement": "level of encapsidated pgRNA", "setting": "[4]", "result": "dose-dependently reduced"}, {"measurement": "capsid formation", "setting": "[5]", "result": "did not affect"}]}
{"smiles": "O=C(Nc1ccc(F)c(F)c1)c1cc(S(=O)(=O)NC2CCCCC2)ccc1F", "note": "[DVR-45, 5-cyclohexylsulfamoyl-N-(3,4-difluoro-phenyl)-2-fluoro-benzamide]", "values": [{"measurement": "CC50 at 48 h", "setting": "[1]", "result": "> 50", "unit": "µM"}, {"measurement": "CC50", "setting": "[6]; Table 10, AML12HBV10 cells, unit inferred, read-out: AML12HBV10 CC50", "result": "> 50", "unit": "µM"}, {"measurement": "EC50", "setting": "[2]; [9]", "result": 0.8, "unit": "µM"}, {"measurement": "EC50", "setting": "[2]; Hepatitis B virus, Table 10, AML12HBV10 cells, unit inferred, read-out: AML12HBV10 EC50", "result": 0.8, "unit": "µM"}, {"measurement": "CC50 at 6 days", "setting": "[7]", "result": "> 50", "unit": "µM"}, {"measurement": "EC90", "setting": "[8]; HBV DNA reduced by 90%", "result": 2.11, "unit": "µM"}, {"measurement": "EC50", "setting": "[8]; Southern blot", "result": 0.48, "unit": "µM"}]}
{"smiles": "NS(=O)(=O)c1cc(C(=O)Nc2cc(C(F)(F)F)ccc2Cl)ccc1F", "note": "[DVR-21]", "values": [{"measurement": "CC50", "setting": "[6]; [10]", "result": "> 50", "unit": "µM"}, {"measurement": "EC50", "setting": "[2]; [11]", "result": 6.8, "unit": "µM"}]}
{"smiles": "COc1ccc(CCNS(=O)(=O)c2ccc(F)c(C(=O)Nc3ccc(Cl)cc3)c2)cc1OC", "note": "[DVR-91]", "values": [{"measurement": "CC50", "setting": "[6]; [10]", "result": "> 50", "unit": "µM"}, {"measurement": "EC50", "setting": "[2]; [11]", "result": 16.8, "unit": "µM"}]}
{"smiles": "NS(=O)(=O)c1cccc(C(=O)Nc2ccccc2)c1", "note": "[DVR-22]", "values": [{"measurement": "CC50", "setting": "[6]; [10]", "result": "> 50", "unit": "µM"}, {"measurement": "EC50", "setting": "[2]; [11]", "result": 8, "unit": "µM"}]}
{"smiles": "NS(=O)(=O)c1cc(C(=O)Nc2cccc(C(F)(F)F)c2)ccc1F", "note": "[DVR-19]", "values": [{"measurement": "CC50", "setting": "[6]; [10]", "result": "> 50", "unit": "µM"}, {"measurement": "EC50", "setting": "[2]; [11]", "result": 9, "unit": "µM"}]}
